# Data taken from paper PMC8396575, ““Molecular Masks” for ACE2 to Effectively and Safely Block SARS-CoV-2 Virus Entry” (International Journal of Molecular Sciences, 2021).
# Bridge positions count the residues as written; N and C are the ends. Square brackets hold non-standard residues; d marks the D form. Peptide text beside a SMILES is read from it. I, II: the chains in the order shown. N(4-MeOBn)Gly = COc1ccc(CNCC(=O)O)cc1; N((CH2)3OiPr)Gly = CC(C)OCCCNCC(=O)O; Nrpe = C[C@@H](NCC(=O)O)c1ccccc1; NAllylGly = C=CCNCC(=O)O; Nleu = CC(C)CNCC(=O)O; Nme = COCCNCC(=O)O
# Tests used:
# [1] = target: T1, recombinant human angiotensin-converting enzyme 2 (ACE2) (His-tag) (Homo sapiens, UniProt Q9BYF1); test: ELISA-like quantitative ACE2-peptoid binding assay
# T1 construct: purchased RayBiotech 230-30165-100
# Procedure: We first validated the OBTC screening results by resynthesizing ACE2P1 and ACE2P2 on tentagel beads and incubated them with red cells (ACE2 positive) and green cells (ACE2 negative) separately as well as 1:1 mixture of these cells. […] Next, we incubated recombinant ACE2 protein with the ACE2P1 or ACE2P2 conjugated tentagel beads and performed in vitro pull-down assay. […] To confirm a direct interaction between the peptoids and ACE2, we performed a thermal shift assay using recombinant ACE2 protein. The Applied Biosystems™ Protein Thermal Shift™ assay measures protein thermal stability using a fluorescent protein-binding dye. […] The protein is mixed with the dye and heated; as it unfolds or melts, hydrophobic parts of the protein are exposed and bind to the dye, resulting in fluorescence emission detected by the qPCR system. Binding of a ligand to the protein changes the stability of the protein, resulting in a change in fluorescence intensity. […] Finally, we performed a previously published ELISA-like quantitative binding assay to quantify the peptoid-ACE2 binding event. The recombinant His-tagged ACE2 protein was attached to the Nickel-coated 96-well plate. […] After washing, the remaining compounds were probed with streptavidin-HRP system followed by detecting luminescence signals using a spectrophotometer. […]
# [2] = tested on: ACE2 activity in Caco-2 cells; test: ACE2 enzyme activity in Caco-2 cells; format: cell-based, human; details: 40 µg cell lysate, cOmplete protease inhibitor 40 µL/mL, 10 µM captopril; fluorescence; n = 3/group
# Procedure: ACE2 is an enzyme which lowers blood pressure by catalyzing the hydrolysis of angiotensin II [49]. […] To determine if ACE2P1D1 and ACE2P2D1 interfere with the normal functions of ACE2, we examined the effects of the peptoids on ACE2 enzyme activity. ACE2 enzyme activity was measured by fluorescence generated from the cleavage of the substrate Mca-YVADAPK(Dnp) by ACE2. […] We then examined the effects of ACE2P1D1 and ACE2P2D1 on ACE2 activity in cultured cells. For measuring ACE2 activity in cells, cell homogenates were used. To prevent hydrolysis of the substrate by a range of nonmetalloprotease enzymes from the cells, cOmplete™ Protease Inhibitor Cocktail (Roche/Sigma—40 µL/mL) was added to the cell homogenates. To eliminate the effects of ACE on the substrate, ACE inhibitor captopril (10 µM) was added to the assay.
# ACE2 enzyme activity was determined using recombinant ACE2 protein (R&D system Inc., Cat# 933-ZN-010, Minneapolis, MN, USA) alone or in the presence of ACE2P1D1 and ACE2P2D1 in different concentrations (0.1 µM, 1 µM, and 10 µM), and Mc[…] (Dnp)-OH, Fluorogenic Peptide Substrate VI from R&D System, Inc. (Cat# ES007, Minneapolis, MN, USA). […] ACE2 enzyme activity was measured every 20 min by fluorescence plate reader (BioTek Cytation 5 cell Imaging Multi-Mode Reader, Winooski, VT, USA) with excitation at 320 nm and emission at 405 nm.
# [3] = tested on: ACE2 cell surface expression in Caco-2 cells; test: Flow cytometry, ACE2 cell surface expression, Caco-2; format: cell-based, human; details: 10 µM, 48 h
# Procedure: To evaluate the impact of compounds to ACE2 upon binding in cell lines, MCF-7, NCI-H1299, and Caco-2 cell cultures reaching 70% confluences were incubated with 10 μM ACE2P1D1 and ACE2P2D1 for 48 h and then harvested using trypsin. Briefly, cells were centrifuged and washed with FACS buffer and then fixed by methanol on ice. Cells were suspended with a primary antibody-staining mixture using 0.5 μg (Human/Mouse/Rat/Hamster ACE-2 Antibody, R&D Systems, Inc., Cat# AF933, Minneapolis, MN, USA) per sample. Samples were incubated at room temperature for 1 h followed by washing and secondary antibody (mouse anti-goat IgG-FITC, Santa Cruz, Cat# sc-2356, Dallas, TX, USA) staining. Samples were incubated for another hour and washed before being analyzed using Accuri™ C6 (BD Biosciences, Franklin Lakes, NJ, USA). Data analysis was conducted by FlowJo™ v10 software (v10.5.2, FlowJo. LLC, Ashland, OR, USA).
# [4] = tested on: total ACE2 protein in Caco-2 cells; test: Western blot, total ACE2, Caco-2; format: cell-based, human; details: various concentrations, 48 h
# Procedure: Cells were lysed in RIPA buffer (1% NP-40, 0.5% sodium deoxycholate, 0.1% SDS in PBS). Complete protease inhibitor cocktail (Roche, St. Louis, MO, USA) was added to lysis buffer before use. Protein concentration was determined by Bio-Rad DC protein assay (Bio-Rad, Hercules, CA, USA). Protein samples were subjected to SDS-PAGE and transferred to nitrocellulose membrane. The membrane was blocked in 5% non-fat milk in PBST overnight and incubated with primary antibody and subsequently with appropriate horse radish peroxidase-conjugated secondary antibody. Signals of targeted proteins were detected by the Immun-Star HRP peroxide Luminol/Enhancer (Bio-Rad, Hercules, CA, USA) and recorded on ChemiDoc Touch Imaging System (Bio-Rad, Hercules, CA, USA). Anti-hACE2 (human ACE2 receptor) antibody was purchased from R&D system, Inc. (Cat# AF933, Minneapolis, MN, USA). Full western blot data are given in Supplementary Material (Figures S14–S16).
# NCI-H1299 cells = test: WST-1 cell viability assay, NCI-H1299; format: cell-based, human; details: WST-1, 48 h, concentrations tested up to 20 µM; n = 3–5/group
# From the text: (§1) We assessed whether ACE2P1D1 and ACE2P2D1 are toxic to the cells. We seeded and treated increasing concentrations of ACE2P1D1 and ACE2P2D1 on NCI-H1299, Caco-2, and MCF-7 cells. The standard WST-1 assay was used to measure the cell viability. As shown in Figure 5c–e, treatment with both compounds had no effects on cell viability in NCI-H1299, MCF-7, and Caco-2 cells.
# Caco-2 cells = test: WST-1 cell viability assay, Caco-2; format: cell-based, human; details: WST-1, 48 h, concentrations tested up to 20 µM; n = 3–5/group
# From the text: as §1
# MCF-7 cells = test: WST-1 cell viability assay, MCF-7; format: cell-based, human; details: WST-1, 48 h, concentrations tested up to 20 µM; n = 3–5/group
# From the text: as §1
# T1 sequence (Q9BYF1 18-805): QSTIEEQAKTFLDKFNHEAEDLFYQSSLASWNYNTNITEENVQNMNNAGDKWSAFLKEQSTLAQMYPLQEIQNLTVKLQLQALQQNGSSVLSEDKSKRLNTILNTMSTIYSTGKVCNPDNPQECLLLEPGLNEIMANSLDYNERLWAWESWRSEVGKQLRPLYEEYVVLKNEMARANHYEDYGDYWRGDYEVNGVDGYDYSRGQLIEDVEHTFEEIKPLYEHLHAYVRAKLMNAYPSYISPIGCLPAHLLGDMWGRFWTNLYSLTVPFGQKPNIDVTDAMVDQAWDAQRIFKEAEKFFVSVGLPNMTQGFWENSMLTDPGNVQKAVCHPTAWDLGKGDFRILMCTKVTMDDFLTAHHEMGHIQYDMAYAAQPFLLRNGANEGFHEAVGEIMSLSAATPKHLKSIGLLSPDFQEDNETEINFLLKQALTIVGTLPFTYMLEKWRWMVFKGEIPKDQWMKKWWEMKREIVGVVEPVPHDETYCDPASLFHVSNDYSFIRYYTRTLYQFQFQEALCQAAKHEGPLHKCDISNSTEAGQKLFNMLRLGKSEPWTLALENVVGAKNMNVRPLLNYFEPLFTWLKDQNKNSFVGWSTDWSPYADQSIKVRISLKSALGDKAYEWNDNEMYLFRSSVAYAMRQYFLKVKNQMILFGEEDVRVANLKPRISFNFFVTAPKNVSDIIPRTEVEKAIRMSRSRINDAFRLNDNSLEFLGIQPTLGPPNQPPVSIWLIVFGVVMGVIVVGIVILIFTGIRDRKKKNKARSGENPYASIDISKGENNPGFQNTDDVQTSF
SMILES,Kd [1],effect on ACE2 activity in cultured Caco-2 cells [2],"cell surface expression of ACE2, Caco-2 [3]","total ACE2 protein level, Caco-2 [4]","effect on cell viability, NCI-H1299 (NCI-H1299 cells)","effect on cell viability, Caco-2 (Caco-2 cells)","effect on cell viability, MCF-7 (MCF-7 cells)"
C=CCN(CC(=O)N(CC(=O)N[C@@H](CCCCN)C(=O)N[C@@H](CCSC)C(=O)NCCCC[C@H](NC(=O)[C@H](CCSC)NC(=O)[C@H](CCCCN)NC(=O)CN(C(=O)CN(CC=C)C(=O)CN(Cc1ccc(OC)cc1)C(=O)CN(C(=O)CN(CCOC)C(=O)CNCC(C)C)[C@H](C)c1ccccc1)[C@H](C)c1ccccc1)C(N)=O)[C@H](C)c1ccccc1)C(=O)CN(Cc1ccc(OC)cc1)C(=O)CN(C(=O)CN(CCOC)C(=O)CNCC(C)C)[C@H](C)c1ccccc1 [ACE2P1D1] (I: H-[Nleu][Nme][Nrpe][N(4-MeOBn)Gly][NAllylGly][Nrpe]KMK-NH2 / II: H-[Nleu][Nme][Nrpe][N(4-MeOBn)Gly][NAllylGly][Nrpe]KM; amide I:9-II:C),0.06 µM,had no effects on ACE2 activity,did not decrease the cell surface expression of ACE2,total ACE2 protein levels did not change,had no effect on the cell viability,had no effect on the cell viability,had no effect on the cell viability
COCCN(CC(=O)N[C@@H](CCCCN)C(=O)N[C@@H](CCSC)C(=O)NCCCC[C@H](NC(=O)[C@H](CCSC)NC(=O)[C@H](CCCCN)NC(=O)CN(CCOC)C(=O)CN(CC(C)C)C(=O)CN(CC(C)C)C(=O)CN(CCCOC(C)C)C(=O)CN(Cc1ccc(OC)cc1)C(=O)CNCc1ccc(OC)cc1)C(N)=O)C(=O)CN(CC(C)C)C(=O)CN(CC(C)C)C(=O)CN(CCCOC(C)C)C(=O)CN(Cc1ccc(OC)cc1)C(=O)CNCc1ccc(OC)cc1 [ACE2P2D1] (I: H-[N(4-MeOBn)Gly][N(4-MeOBn)Gly][N((CH2)3OiPr)Gly][Nleu][Nleu][Nme]KMK-NH2 / II: H-[N(4-MeOBn)Gly][N(4-MeOBn)Gly][N((CH2)3OiPr)Gly][Nleu][Nleu][Nme]KM; amide I:9-II:C),0.11 µM,had no effects on ACE2 activity,did not decrease the cell surface expression of ACE2,total ACE2 protein levels did not change,had no effect on the cell viability,had no effect on the cell viability,had no effect on the cell viability
